Series [1] relates to extracellular dopamine (DA) in nucleus accumbens. The series is described as follows: Microdialysis of nucleus accumbens, extracellular dopamine after AMPH. It is filed as in vivo, mouse. The settings on record: 10 mg/kg i.p., 40 min before AMPH 2 mg/kg i.p.; n=1/group. How it is done: For this study, a probe was implanted into the nucleus accumbens (NAc) (FIG. 11A). Following baseline measurements, mice were dosed with vehicle or Compound 22 (10 mg/kg, i.p) followed 40 min later by a single dose of AMPH (2 mg/kg, i.p.). Samples were collected for 2 hr post-dosing. Extracellular dopamine (DA) levels in the dialysate were quantified by HPLC with electrochemical detection (FIG. 11B). […] Compound 22 modulates both spontaneous and reward-related DA release. To confirm these findings in parallel experiments, GPCR-activation based-DA (GRAB-DA) was used, which is a human D2R-GFP chimera sensor that produces fluorescence changes reliably and with sub-second kinetics in response to extracellular DA concentration changes in behaving animals (Sun et al. Cell 2018; 174(2):481-96.e19). Mice were injected with an adeno-associated virus (AAV) carrying GRAB-DA into the (NAc) (FIG. 11C) and allowed to recover for −2 weeks before fiber photometry experiments were performed. In the first pilot experiment, baseline DA release were recorded for 5 min before mice (n=3) were injected with either Compound 22 or vehicle and then recording was continued for 45 min. The rate of spontaneous DA transients was compared in the pre-injection (0-5 min) vs post-injection (35-50 min) periods; there was a significant time x drug interaction: F(1,4)=11.91, P=0.026.

A short description of another series: Plasma protein binding. It is filed as in vitro ADME. How it is done:
(§1) Detailed characterization data was collected for Compound 22. Primary assays were carried out according to Examples 2 and 3, while other assays were carried out according to standard methods.

In the next series the target is human CB2R (Homo sapiens, UniProt P34972). The series is described as follows: cAMP Hunter eXpress GPCR assay, human CB2: inhibition of forskolin-stimulated cAMP in CHO cells. It is filed as cell-based. More on the design: host or cells: CHO cells. The procedure: Briefly, cAMP Hunter eXpress Cells were seeded 18-24 h prior to the in a 96-well tissue culture treated assay plate and incubated in 5% CO2 at 37° C. in a humidified incubator. After removal of cell media, agonist compound and forskolin prepared in cell assay buffer was added and incubated at 37° C. The CB1 cAMP assay was stimulated with 20 μM final concentration of forskolin with 40 minutes incubation time. The CB2 cAMP assay was stimulated with 25 μM final concentration of forskolin with 35 minutes incubation time. The assay was stopped by incubation with antibody and working solution for 1 h at room temperature. After over 3 h incubation at room temperature in the dark with enzyme acceptor solution, chemiluminescence was measured on a CLARIOstar plate reader (BMG LABTECH Inc., Cary, NC, USA).

The target in the next series is T1, GPR18 (Homo sapiens, UniProt Q14330).
T1 sequence (Q14330 1-331): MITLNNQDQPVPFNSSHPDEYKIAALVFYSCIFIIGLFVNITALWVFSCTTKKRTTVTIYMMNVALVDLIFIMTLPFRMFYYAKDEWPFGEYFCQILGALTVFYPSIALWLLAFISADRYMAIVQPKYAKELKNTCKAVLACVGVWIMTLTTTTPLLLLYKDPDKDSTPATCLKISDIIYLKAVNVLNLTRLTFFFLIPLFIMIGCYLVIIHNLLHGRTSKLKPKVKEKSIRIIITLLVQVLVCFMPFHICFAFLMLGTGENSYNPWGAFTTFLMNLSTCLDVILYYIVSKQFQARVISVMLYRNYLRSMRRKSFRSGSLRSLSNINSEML
The series is described as follows: Off-target activity GPR18 (agonist, antagonist, PAM modes). It counts as cell-based. The procedure: as §1

For the next series, the target named is T2, GPR119 (Homo sapiens, UniProt Q8TDV5).
T2 sequence (Q8TDV5 1-335): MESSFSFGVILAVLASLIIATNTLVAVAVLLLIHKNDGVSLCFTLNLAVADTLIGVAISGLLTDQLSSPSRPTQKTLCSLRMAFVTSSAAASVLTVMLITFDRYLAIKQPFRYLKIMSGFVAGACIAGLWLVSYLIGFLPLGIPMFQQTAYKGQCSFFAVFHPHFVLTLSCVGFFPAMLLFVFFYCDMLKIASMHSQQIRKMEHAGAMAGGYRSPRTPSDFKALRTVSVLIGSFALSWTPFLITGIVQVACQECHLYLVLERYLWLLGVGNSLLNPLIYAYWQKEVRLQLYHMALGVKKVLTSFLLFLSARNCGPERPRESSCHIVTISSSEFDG
Briefly: Off-target activity GPR119 (agonist, antagonist, PAM modes). It counts as cell-based. How it is done:
as §1

The test system of a further series is 168 GPCRs. The series is described as follows: Broad screening panel gpcrMAX. It is filed as cell-based. To be noted: gpcrMAX at 70 nM against 168 GPCRs. How it is done:
as §1

A short description of another series: Brain protein binding. It is filed as in vitro ADME. To be noted: brain tissue. The procedure: as §1

SMILES strings stand for the structures.

Chain of human CB2R (P34972 whole entry): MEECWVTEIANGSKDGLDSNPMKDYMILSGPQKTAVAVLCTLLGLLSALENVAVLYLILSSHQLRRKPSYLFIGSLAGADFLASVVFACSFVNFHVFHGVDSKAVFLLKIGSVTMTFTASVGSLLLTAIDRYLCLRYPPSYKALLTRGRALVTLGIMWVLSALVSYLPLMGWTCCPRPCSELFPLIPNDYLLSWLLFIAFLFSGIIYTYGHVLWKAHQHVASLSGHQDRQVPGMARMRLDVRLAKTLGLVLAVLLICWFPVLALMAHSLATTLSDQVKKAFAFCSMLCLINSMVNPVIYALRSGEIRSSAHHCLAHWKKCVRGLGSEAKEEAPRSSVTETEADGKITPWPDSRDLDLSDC

Turning to `CC(C)(CO)c1cc(NC(=O)N2CCCN2c2ccc(C(F)(F)F)cc2)no1` [Compound 22, N-(5-(1-hydroxy-2-methylpropan-2-yl)isoxazol-3-yl)-2-(4-(trifluoromethyl)phenyl)pyrazolidine-1-carboxamide], the “Extracellular DA release after AMPH dosing” value in series [1] was “reduced extracellular DA release after AMPH dosing”. In addition, the fraction unbound in “Plasma protein binding” is 0.0631; in the series “Brain protein binding”, 0.0198. Further, the EC50 at human CB2R (Activity in primary assay: CB2 EC50, Table 6, hCB2 cAMP, agonist mode, mean of n = 3-5 expts on ≥2 batches) is 67 nM; at GPR18, over 10 µM; on GPR119, over 10 µM. Moreover, at human CB2R (CB1/CB2 cAMP), the “Selectivity (related family)” value worked out at 150 fold selectivity. For the same molecule, at human CB2R (CB2 cAMP/CB2 beta-arrestin), the “Selectivity (pathway)” value is listed as 9 fold selectivity. Also, the “CB2 agonist character (in words)” value on human CB2R (cAMP assay, CP-55940 as full agonist control) is listed as “potent agonists of CB2”. Further, on human CB2R (cAMP assays hCB1 vs hCB2), the “Selectivity for CB2 over CB1 (in words)” value is on record as “selective for CB2 over CB1”. Besides, the IC50 on GPR18 and at GPR119 was over 10 µM throughout. In addition, the “Activity in broad screening panel” value in the series on 168 GPCRs is listed as “No significant off”.

The term fraction unbound denotes free concentration divided by total concentration. High values mean much free substance, low ones little free substance. What is called EC50 is the concentration giving half of the maximal effect. A high value points to lower potency in that assay. One may read the IC50 as the midpoint of a concentration-inhibition curve. Low readings indicate greater potency in that assay, high ones weaker potency in that assay.

The values are drawn from patent US20240158384A1, “CB2 RECEPTOR AGONISTS” (The Board of Trustees of the Leland Stanford Junior …, priority 2020, published 2024).
